# According to patent publication US20050033056A1, “Hydroxylated indole derivatives and uses thereof” (priority 2001, published 2005):
# Key:
# CYP1A1/2 = test: CYP induction in primary human hepatocytes, Western immunoblotting: CYP1A1/2; format: cell-based; conditions: TCDD 0.4 μM, 72 hours
# Method: Upon receiving a primary culture of human hepatocytes in 6-well plates, the culture medium containing streptomycin/penicillin was refreshed (2 ml/well). […] Compound 1 stock solution was added to the culture medium at a 1:400 ratio (v/v). The culture medium and testing compounds were replenished every 24 hours.
# At the end of the treatment, the cells were harvested into 1 mL of phosphate-buffered saline (PBS) after washing twice. The cells were precipitated by centrifugation, and were resuspended in PBS (approximately 50 μL). The sample preparation, after mixing with […] of Laemmli buffer (62.5 mM Tris-HCl containing 2% SDS, 25% glycerol, and 0.01% bromophenol, pH 6.8) and being rocked for 2-4 hours, was mixed with 10 μL of 2-mercaptoethanol, and heated at 90° C. for 10 minutes before electrophoresis.
# Proteins were resolved in a 12% SDS-PAGE gel using a mini gel apparatus at a constant voltage ([…]) for 70-80 minutes, and transferred onto a polyvinylidene difluoride (PVDF) membrane using a membrane-transferring unit at a constant voltage ([…]) for 60 minutes. The membrane was blocked by 5% non-fat dried milk (NFDM) blotting buffer (PBS containing 0.05% Tween 20) at 4° C. overnight. […] CYP proteins were detected by […] using an X-ray developer.
# [1] = tested on: pooled human liver microsomal preparations (HLM); test: Compound 1 metabolism / metabolite formation in reconstituted system with pooled HLM; format: in vitro ADME; conditions: estimated by UV absorbance at 270 nm, metabolite formed or Compound 1 left after 1 hour with NADPH
# Method: (§1) The metabolism of Compound 1 was determined by the disappearance of Compound 1 or the appearance of Compound 1 metabolites in reaction mixtures as compared to respective controls. Compound 1 was incubated in the reconstituted in vitro reaction systems containing pooled human liver S9 fractions, microsomal preparations, or recombinant hepatic CYP forms, including CYP1A2, CYP2C9, CYP2C19, CYP2D6, CYP2E1, and CYP3A4. The reaction mixture (total volume of 250 μL) contained 0.5 mg of liver microsomal protein, 50 or 25 pmol of recombinant CYP, and Compound 1 (50-80 μM) in 50 mM Tris buffer containing 15 mM MgCl2 (pH 7.4). After incubating at 37° C. with gentle shaking for 1 minute, the reaction was initiated by adding 25 μL of NADPH solution (20 mg/mL), and was carried out for 1 hour. The reaction was terminated by quickly cooling the test tube on ice, followed by the addition of an equal volume of 100% methanol. The samples were centrifuged in a desktop centrifuge at 14,000 rpm for 5 minutes, and the supernatants were filtered through syringe filters (13 mm, 0.45 μm). The filtrates were subjected to analysis using LC/MS (ion trap) or LC/MS/MS.
# 1. […] The detector was monitored at 270 nm, which is the UVmax of Compound 1 predetermined by scanning between 225-400 nm using a photodiode array detector (PDA). […]
# CYP2C19 = CYP2C19 (Homo sapiens, UniProt P33261); test: Compound 1 metabolism / metabolite formation by recombinant CYP2C19; format: in vitro ADME; parameters: purchased Gentest Corp. (Woburn, Mass.); host or cells: insect cells (microsomal preparation)
# Method: as §1
# (§2) 1. LC/MS (LCQ ion trap mass spectrometer, Finnigan Corp., San Jose, Calif.): Hewlett Packard 1100 HPLC system (Waldbronn, Germany) consisted of a binary pump, an autosampler, a column compartment unit, and an online variable wavelength UV detector (VWD). The detector was monitored at 270 nm, which is the UVmax of Compound 1 predetermined by scanning between 225-400 nm using a photodiode array detector (PDA). The metabolites were separated on a Hewlett Packard Eclipse C18 column (150×2.1 mm). The mobile phases were 10 nmM ammonium acetate at pH 4.8 (A) and acetonitrile (B). The gradient (B) was 10% (0-6 minutes), 22% (12-22 minutes), 90% (25-30 minutes), and 10% (31 minutes and after). The flow rate was 0.25 mL/minute. Software Navigator (Version 1.2, Finnigan Corp.) was used to control the HPLC and MS and to acquire the data. The MS was operated at positive electrospray ionization (ESI) with 5.2 kV ionization potential and 220° C. heated capillary temperature. The product ion spectra were generated under 24V collision energy, which was optimized for the fragmentation of Compound 1.
# 2. LC/MS/MS (SCIEX API2000 triple quadrupole mass spectrometer, PE Biosystem, Foster City, Calif.): The same HPLC system described above was coupled with a tandem mass spectrometer. The metabolites were separated on a Sulpelco Discovery C18 column (150×2.1 mm), and the mobile phase described previously was run at 1.0 mL/min with a 1:10 split. The gradient (B) was 20% (0-6 minutes), 60% (14-18 minutes), 95% (20-24 minutes), and 20% (25 minutes and after). The operation of the HPLC and the MS/MS was controlled by MacChrom (Version 1.6, PE Biosystem). […]
# CYP2D6 = CYP2D6 (Homo sapiens, UniProt P10635); test: Compound 1 metabolism / metabolite formation by recombinant CYP2D6; format: in vitro ADME; parameters: purchased Gentest Corp. (Woburn, Mass.); host or cells: insect cells (microsomal preparation); conditions: recombinant CYP2D6, NADPH
# Method: as §1
# as §2, with “The MS was operated at positive electrospray ionization (ESI) with 5.2 kV ionization potential and 220° C. heated capillary temperature. The product ion spectra were generated under 24V collision energy, which was optimized for the fragmentation of Compound 1.” left out
# CYP3A4 = CYP3A4 (Homo sapiens, UniProt P08684); test: Compound 1 metabolism / metabolite formation by recombinant CYP3A4; format: in vitro ADME; parameters: purchased Gentest Corp. (Woburn, Mass.); host or cells: insect cells (microsomal preparation); conditions: recombinant CYP3A4; estimated by UV absorbance at 270 nm; metabolite formed or Compound 1 left after 1 hour with NADPH
# Method: as §1
# as §2, with “The MS was operated at positive electrospray ionization (ESI) with 5.2 kV ionization potential and 220° C. heated capillary temperature. The product ion spectra were generated under 24V collision energy, which was optimized for the fragmentation of Compound 1.” left out
# CYP2C19, sequence (P33261 whole entry): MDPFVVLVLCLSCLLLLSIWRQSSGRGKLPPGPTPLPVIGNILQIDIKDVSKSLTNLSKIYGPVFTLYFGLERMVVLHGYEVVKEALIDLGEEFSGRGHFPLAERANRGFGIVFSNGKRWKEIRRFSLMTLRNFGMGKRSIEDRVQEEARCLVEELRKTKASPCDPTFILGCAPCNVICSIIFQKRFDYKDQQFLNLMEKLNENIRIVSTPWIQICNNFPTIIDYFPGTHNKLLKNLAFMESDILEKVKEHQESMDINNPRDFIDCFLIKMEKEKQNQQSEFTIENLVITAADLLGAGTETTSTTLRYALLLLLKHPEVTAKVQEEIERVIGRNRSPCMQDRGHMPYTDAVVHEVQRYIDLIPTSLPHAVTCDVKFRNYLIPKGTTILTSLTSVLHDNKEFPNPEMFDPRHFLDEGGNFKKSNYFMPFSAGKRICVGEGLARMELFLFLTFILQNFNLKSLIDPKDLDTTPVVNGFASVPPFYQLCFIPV
# CYP2D6, sequence (P10635 whole entry): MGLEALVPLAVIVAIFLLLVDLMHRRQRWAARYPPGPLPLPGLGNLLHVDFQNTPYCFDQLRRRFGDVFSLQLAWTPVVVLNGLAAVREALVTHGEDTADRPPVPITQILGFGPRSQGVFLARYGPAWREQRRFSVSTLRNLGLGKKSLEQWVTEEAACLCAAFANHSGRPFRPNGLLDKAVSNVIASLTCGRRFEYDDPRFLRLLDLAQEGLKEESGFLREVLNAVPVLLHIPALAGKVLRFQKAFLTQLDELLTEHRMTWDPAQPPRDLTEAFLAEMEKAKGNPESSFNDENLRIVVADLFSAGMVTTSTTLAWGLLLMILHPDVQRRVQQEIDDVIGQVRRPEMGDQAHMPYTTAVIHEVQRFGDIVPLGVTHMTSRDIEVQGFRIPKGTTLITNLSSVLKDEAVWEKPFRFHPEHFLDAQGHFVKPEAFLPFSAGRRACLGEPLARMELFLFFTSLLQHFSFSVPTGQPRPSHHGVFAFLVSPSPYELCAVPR
# CYP3A4, sequence (P08684 whole entry): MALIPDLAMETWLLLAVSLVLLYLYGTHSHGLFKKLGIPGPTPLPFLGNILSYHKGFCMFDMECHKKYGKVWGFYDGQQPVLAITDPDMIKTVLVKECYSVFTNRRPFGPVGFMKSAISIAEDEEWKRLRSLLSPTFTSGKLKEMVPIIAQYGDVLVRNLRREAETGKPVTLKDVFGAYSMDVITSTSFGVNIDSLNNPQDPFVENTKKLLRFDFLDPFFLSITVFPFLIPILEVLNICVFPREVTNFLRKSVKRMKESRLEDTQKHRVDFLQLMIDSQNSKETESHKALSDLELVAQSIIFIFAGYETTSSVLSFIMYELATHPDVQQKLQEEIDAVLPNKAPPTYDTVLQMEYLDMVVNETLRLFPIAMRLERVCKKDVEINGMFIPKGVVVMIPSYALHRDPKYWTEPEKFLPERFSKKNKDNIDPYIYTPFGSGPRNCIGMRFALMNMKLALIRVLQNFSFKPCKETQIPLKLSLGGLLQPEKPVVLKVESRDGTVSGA
Rel. Amount (%) [1],"formation of the metabolite from Compound 1 by CYP2C19 (in words) (CYP2C19; recombinant CYP2C19, NADPH)","Rel. Amount (%) (CYP2C19; recombinant CYP2C19, estimated by UV absorbance at 270 nm, metabolite formed or Compound 1 left after 1 hour with NADPH)",formation of the metabolite from Compound 1 by CYP2D6 (in words) (CYP2D6),Rel. Amount (%) (CYP3A4),Structure (SMILES),"expression of CYP1A1/2 (Western immunoblotting), positive control (CYP1A1/2)"
–,–,–,–,–,"Clc1cc2c(cc1Cl)Oc1cc(Cl)c(Cl)cc1O2 [TCDD, 2,3,7,8-tetrachlorodibenzo-p-dioxin, reference compound]",elevated expressions
21%,formed,20%,formed,31%,CNC(=O)Cc1ccc2ccn(C3CCNCC3)c2c1 [Compound M4],–
